Measurements from paper PMC6315506 (Viruses, 2018).

Tests used:
HIV-1/LASV pseudovirus = assay: microbe, parasite or virus in culture; format: cell-based; conditions: for inhibition at 10 µM: Human immunodeficiency virus 1, A549, 48 h, read-out: Inhibition HIV-1/LASV; for Inhibition HIV/LASV: 10 µM
in vitro = conditions: human
HIV-1/EBOV pseudovirus [1] = conditions: for Inhibition HIV/EBOV: 10 µM
HIV-1/EBOV pseudovirus [2] = assay: microbe, parasite or virus in culture; conditions: Zaire ebolavirus, A549, read-out: IC50 (anti-HIV-1/EBOV)
HIV-1/EBOV pseudovirus [3] = assay: organism not typed; conditions: A549, 48 h, read-out: Inhibition HIV-1/EBOV
HIV-1/H5N1 pseudovirus = assay: organism not typed; format: cell-based, influenza A virus A/Goose/Qinghai/59/05 (H5N1); conditions: for inhibition at 10 µM: A549, 48 h, read-out: Inhibition HIV-1/H5N1; for Inhibition HIV/H5N1: 10 µM
A549 cells = conditions: 10 µM

| SMILES | inhibition at 10 µM (HIV-1/LASV pseudovirus) [%] | CC50 (in vitro) [µM] | viability at 10 µM (in vitro) [%] | SI (CC50/IC50) (HIV-1/EBOV pseudovirus [1]) | IC50 (HIV-1/EBOV pseudovirus [2]) [µM] | inhibition at 10 µM (HIV-1/EBOV pseudovirus [3]) [%] | inhibition at 10 µM (HIV-1/H5N1 pseudovirus) [%] | Inhibition HIV/LASV (HIV-1/LASV pseudovirus) [%] | Inhibition HIV/EBOV (HIV-1/EBOV pseudovirus [1]) [%] | Cell Viability (A549 cells) [%] | Inhibition HIV/H5N1 (HIV-1/H5N1 pseudovirus) [%] |
| --- | --- | --- | --- | --- | --- | --- | --- | --- | --- | --- | --- |
| COc1nc2ccccc2cc1C(O)(Cc1cccc(F)c1)c1ccccc1CN(C)C (stereo not drawn) [SYL1640] | -15.1 | 190 | 97.6 | 64.3 | 2.96 | 79.1 | -1.97 |  |  |  |  |
| Brc1ccc2nc(OCc3cccc4ccccc34)c(-c3ccc(CNC45CC6CC(CC(C6)C4)C5)cc3)cc2c1 [SYL1683] | 26.3 | 235 | 104 | 80.3 | 2.93 | 95.7 | 21.7 |  |  |  |  |
| COc1ccc(CC(O)(c2ccccc2CN(C)C)c2cc3cc(Br)ccc3nc2OC)cc1 (stereo not drawn) [SYL1655] | 28.9 | 132 | 95.3 | 49.9 | 2.65 | 90.3 | -17.2 |  |  |  |  |
| CN(C)Cc1ccc(-c2cc3cc(Br)ccc3nc2-n2ccnc2)cc1 [SYL1711] | 25.5 | 242 | 90.7 | 58.9 | 4.11 | 98.7 | 38.3 |  |  |  |  |
| COc1nc2ccccc2cc1C(c1ccccc1)C(O)(CC(=O)N(C)C)c1cccc2ccccc12 (stereo not drawn) [SYL1642] | 35 | 152 | 72.3 | 29.2 | 5.21 | 92.2 | 14.1 |  |  |  |  |
| COc1nc2ccc(Br)cc2cc1C(O)(CCc1ccccc1)c1ccccc1CN(C)C (stereo not drawn) [SYL1654] | 18.8 | 222 | 94.7 | 44.7 | 4.98 | 84.8 | 8.04 |  |  |  |  |
| COC1=Nc2ccccc2C(C2(c3ccccc3)CCN(C)CC2)C1C(=O)c1ccccc1 (stereo not drawn) [SYL1660] | -26.6 | 185 | 106 | 71.6 | 2.58 | 97.5 | 3.34 |  |  |  |  |
| COc1nc2ccccc2cc1C(c1ccccc1)n1c(=O)n(CCCN(C)C)c2ccccc21 (stereo not drawn) [SYL1625] |  |  |  |  |  |  |  | 87.77 | 99.90 | 86.95 | -0.36 |
| COc1ccc(CC(O)(c2ccccc2CN(C)C)c2cc3cc(OC)ccc3nc2OC)cc1 (stereo not drawn) [SYL1663] |  |  |  |  |  |  |  | 89.19 | 99.90 | 89.15 | 88.29 |
| CN(C)CCC(O)(c1cccc(F)c1)C1c2ccccc2Sc2ccccc21 (stereo not drawn) [SYL1634] |  |  |  |  |  |  |  | 83.87 | 99.53 | 81.21 | 83.95 |
| COc1ccc2nc(OCc3cccc4ccccc34)c(-c3ccc(CN(C)C)cc3)cc2c1 [SYL1702] |  |  |  |  |  |  |  | 89.93 | 99.95 | 89.90 | 87.31 |
| Fc1cccc(COc2nc3ccc(Br)cc3cc2-c2cccc(Oc3ccccn3)c2)c1 [SYL1647] |  |  |  |  |  |  |  | 89.08 | 99.94 | 82.66 | 44.09 |
| CN(C)Cc1ccc(-c2cc3cc(Br)ccc3nc2OCc2cccc(F)c2)cc1 [SYL1715] |  |  |  |  |  |  |  | 76.84 | 99.61 | 84.72 | 95.43 |
| COc1cccc(COc2nc3ccc(Br)cc3cc2-c2ccc(CN(C)C)cc2)c1 [SYL1707] |  |  |  |  |  |  |  | 78.74 | 99.14 | 80.79 | 95.43 |
| CN(C)Cc1cccc(-c2cc3cc(Br)ccc3nc2Sc2cccc(O)c2)c1 [SYL1639] |  |  |  |  |  |  |  | 98.93 | 99.85 | 2.71 | 97.65 |
| CN(C)Cc1cccc(-c2cc3cc(Br)ccc3nc2Oc2ccncc2)c1 [SYL1648] |  |  |  |  |  |  |  | 89.27 | 99.91 | 84.21 | 37.82 |
| COc1nc2ccccc2cc1C(O)(Cc1cccc(F)c1)c1ccccc1CN1CCOCC1 (stereo not drawn) [SYL1668] |  |  |  |  |  |  |  | 86.46 | 99.87 | 79.06 | 74.86 |
| CN(C)Cc1ccc(-c2cc3cc(Br)ccc3nc2OCc2c(F)cccc2F)cc1 [SYL1693] |  |  |  |  |  |  |  | 99.04 | 99.59 | 3.19 | 97.66 |
| COc1cccc(COc2nc3ccc(Br)cc3cc2-c2cccc(CN(C)C)c2)c1 [SYL1657] | 25.8 | 215 | 93.9 | 60.3 | 3.56 | 89.2 | 0.16 |  |  |  |  |
| CN(C)Cc1ccc(-c2cc3cc(Br)ccc3nc2OCc2cccc3ccccc23)c(F)c1 [SYL1682] |  |  |  |  |  |  |  | 94.69 | 99.91 | 84.09 | 78.74 |

| SMILES | inhibition at 10 µM (HIV-1/LASV pseudovirus) [%] | CC50 (in vitro) [µM] | viability at 10 µM (in vitro) [%] | SI (CC50/IC50) (HIV-1/EBOV pseudovirus [1]) | IC50 (HIV-1/EBOV pseudovirus [2]) [µM] | inhibition at 10 µM (HIV-1/EBOV pseudovirus [3]) [%] | inhibition at 10 µM (HIV-1/H5N1 pseudovirus) [%] | Inhibition HIV/LASV (HIV-1/LASV pseudovirus) [%] | Inhibition HIV/EBOV (HIV-1/EBOV pseudovirus [1]) [%] | Cell Viability (A549 cells) [%] | Inhibition HIV/H5N1 (HIV-1/H5N1 pseudovirus) [%] |
| --- | --- | --- | --- | --- | --- | --- | --- | --- | --- | --- | --- |
| Brc1ccc2nc(OCc3cccc4ccccc34)c(-c3cnn(C4CCCCO4)c3)cc2c1 (stereo not drawn) [SYL1658] | 19.2 | 110 | 72.7 | 12.7 | 8.65 | 77.4 | 36.9 |  |  |  |  |
| CN(C)CCN1CCN(Cc2ccc(-c3cc4cc(Br)ccc4nc3OCc3cccc4ccccc34)cc2)CC1 [SYL1688] |  |  |  |  |  |  |  | 88.12 | 99.92 | 80.00 | 91.36 |
| COc1nc2ccc(Br)cc2cc1C(c1ccccc1)C1(O)CCN(C)CC1 (stereo not drawn) [SYL1636] |  |  |  |  |  |  |  | 98.04 | 99.39 | 4.08 | 97.70 |
| CN(C)CCc1cccc(-c2cc3cc(Br)ccc3nc2OCc2cccc3ccccc23)c1 [SYL1643] |  |  |  |  |  |  |  | 83.87 | 99.82 | 85.39 | 72.74 |
| COc1nc2ccc(Br)cc2cc1C(Nc1ccccc1OCCN(C)C)c1ccccc1 (stereo not drawn) [SYL1622] |  |  |  |  |  |  |  | 83.38 | 99.12 | 77.49 | 96.99 |
| Brc1ccc2nc(OCc3cccc4ccccc34)c(-c3ccc(Cn4ccnc4)cc3)cc2c1 [SYL1691] |  |  |  |  |  |  |  | 57.43 | 92.17 | 72.14 | 97.25 |
| CN(C)CCNc1nc2ccc(Br)cc2cc1-c1ccc(CN(C)C)cc1 [SYL1721] |  |  |  |  |  |  |  | 99.50 | 99.63 | 1.26 | 98.20 |
| COc1ccc2nc(OCc3cccc4ccccc34)c(-c3cccc(CN(C)C)c3)cc2c1 [SYL1667] |  |  |  |  |  |  |  | 85.91 | 99.94 | 83.17 | 85.49 |
| CN(C)Cc1cccc(-c2cc3cc(Br)ccc3nc2OCCc2cccc3ccccc23)c1 [SYL1664] |  |  |  |  |  |  |  | 86.44 | 99.90 | 84.59 | 50.44 |
| CN1CCN(Cc2ccc(-c3cc4cc(Br)ccc4nc3OCc3cccc4ccccc34)cc2)CC1 [SYL1670] |  |  |  |  |  |  |  | 77.77 | 99.92 | 82.37 | 91.10 |
| CN(C)C(=O)Cc1ccc(-c2cc3cc(Br)ccc3nc2OCc2cccc3ccccc23)cc1 [SYL1677] |  |  |  |  |  |  |  | 29.51 | 90.04 | 58.71 | 15.95 |
| CN(C)Cc1ccccc1C(O)c1cc2cc(Br)ccc2nc1OCc1cccc2ccccc12 (stereo not drawn) [SYL1652] |  |  |  |  |  |  |  | 97.16 | 99.94 | 61.30 | 98.16 |
| CN(C)CCOc1nc2ccc(Br)cc2cc1-c1ccc(CN(C)C)cc1 [SYL1723] |  |  |  |  |  |  |  | 97.12 | 99.81 | 68.89 | 98.10 |
| CN(C)Cc1ccc(-c2cc3cc(Br)ccc3nc2OCc2ccccc2)cc1 [SYL1675] |  |  |  |  |  |  |  | 91.37 | 99.89 | 88.37 | 98.13 |
| CN1CCN(c2ccc(-c3cc4cc(Br)ccc4nc3OCc3cccc4ccccc34)cn2)CC1 [SYL1687] |  |  |  |  |  |  |  | 88.94 | 99.94 | 78.11 | 31.90 |
| CN1CCC(c2ccccc2)(C(O)(c2ccccc2)c2ccc3ccccc3c2)CC1 (stereo not drawn) [SYL1644] |  |  |  |  |  |  |  | 92.36 | 99.92 | 78.35 | 97.63 |
| CN(C)Cc1ccc(-c2cc3cc(Br)ccc3nc2OCc2ccncc2)cc1 [SYL1696] |  |  |  |  |  |  |  | 98.53 | 99.25 | 26.82 | 97.45 |
| COc1cc(-c2cc3cc(Br)ccc3nc2OCc2cccc3ccccc23)ccc1CN(C)C [SYL1709] |  |  |  |  |  |  |  | 81.68 | 99.76 | 74.44 | 94.56 |
| COc1nc2ccccc2cc1C(c1ccccc1)n1c(=O)n(CCN(C)C)c2ccccc21 (stereo not drawn) [SYL1624] |  |  |  |  |  |  |  | 85.88 | 99.82 | 86.63 | 53.54 |
